Reference: patent publication US10858335B2 (Rigel Pharmaceuticals, Inc., priority 2014, dated 2020)

system: GDF8 signaling (p-SMAD-3 (Ser423/425)); experiment: AlphaScreen SureFire SMAD3 (p-Ser423/425) assay, GDF8-stimulated cells (GDF pSMAD); format: cell-based; conditions: MPC11; GDF8-stimulated; p-SMAD3 AlphaScreen; read-out: GDF pSMAD (MPC11) (inhibition of GDF8 signaling)

SMILES | IC50
Cc1cc(-c2ncccc2-c2ccn3ncc(C(=O)NC4CC5CCC(C4)N5C)c3c2)ccc1F (stereo not drawn) [compound 715, exo-5-(2-(4-Fluoro-3-methylphenyl)pyridin-3-yl)-N-(8-methyl-8-azabicyclo[3.2.1]octan-3-yl)pyrazolo[1,5-a]pyridine-3-carboxamide] | 2.03 µM

same assay, conditions: Mus musculus, MPC-11, GDF8-stimulated pSMAD3, MPC11; tested as the salt form given; read-out: GDF pSMAD (MPC11) (μM), inhibition of GDF8 signaling

IC50 | SMILES
0.368 µM | Fc1cc(-c2ncccc2-c2ccn3nccc3n2)c(F)c(F)c1F [compound 1053]
0.956 µM | Cc1cc(-c2ncccc2-c2cc(C)c3ncnc(N)c3c2)ccc1F [compound 986, 6-(2-(4-fluoro-3-methylphenyl)pyridin-3-yl)-8-methylquinazolin-4-amine]
6.5 µM | Nc1ncnc2ccc(-c3cc(F)cnc3-c3cccc(O)c3)cc12 [compound 1000, 3-(3-(4-aminoquinazolin-6-yl)-5-fluoropyridin-2-yl)phenol]

same assay, conditions: Mus musculus, MPC-11, MPC11; GDF8-stimulated; p-SMAD3 AlphaScreen; read-out: GDF pSMAD (MPC11) (inhibition of GDF8 signaling)

IC50 | SMILES
5.66 µM | Cc1cccc(-c2ncccc2-c2ccc3nncn3c2)c1 [Compound 162, 6-(2-m-Tolylpyridin-3-yl)-[1,2,4]triazolo[4,3-a]pyridine]
3.7 µM | Cc1cc(-c2ncc(NS(C)(=O)=O)cc2-c2ccc3[nH]ncc3c2)ccc1F [Compound 30, N-(6-(4-Fluoro-3-methylphenyl)-5-(1H-indazol-5-yl)pyridin-3-yl)methanesulfonamide]
18.7 µM | CCOc1cnc(-c2ccc(F)cc2)c(-c2ccc3[nH]ncc3c2)c1 [Compound 6, 5-(5-Ethoxy-2-(4-fluorophenyl)pyridin-3-yl)-1H-indazole]
0.359 µM | FC(F)(F)c1cccc(-c2ncccc2-c2ccc3[nH]ncc3c2)c1 [Compound 197, 5-(2-(3-(Trifluoromethyl)phenyl)pyridin-3-yl)-1H-indazole]
0.997 µM | Fc1ccc(OC(F)(F)F)cc1-c1ncccc1-c1ccn2ncnc2c1 [compound 884, 7-(2-(2-Fluoro-5-(trifluoromethoxy)phenyl)pyridin-3-yl)-[1,2,4]triazolo[1,5-a]pyridine]
0.57 µM | Cc1cc(-c2ncccc2-c2ccn3cncc3c2)ccc1F [compound 594, 7-(2-(4-Fluoro-3-methylphenyl)pyridin-3-yl)imidazo[1,5-a]pyridine]
2.47 µM | COc1ccc(Nc2ncnc3ccc(-c4cccnc4-c4ccc(F)c(C)c4)cc23)cc1 [compound 407, 6-(2-(4-Fluoro-3-methylphenyl)pyridin-3-yl)-N-(4-methoxyphenyl)quinazolin-4-amine]
11.2 µM | Fc1ccc(-c2ncccc2-c2ccc3cn[nH]c3c2)cc1 [Compound 101, 6-(2-(4-Fluorophenyl)pyridin-3-yl)-1H-indazole]
12.7 µM | Cc1cc(-c2ncccc2-c2ccc3ncn(CCCN4CCOCC4)c3c2)ccc1F [compound 252, 4-(3-(6-(2-(4-fluoro-3-methylphenyl)pyridin-3-yl)-1H-benzo[d]imidazol-1-yl)propyl)morpholine]
1.9 µM | CS(=O)(=O)Nc1cnc(-c2cccc(C3CC3)c2)c(-c2ccc3[nH]ncc3c2)c1 [Compound 31, N-(6-(3-Cyclopropylphenyl)-5-(1H-indazol-5-yl)pyridin-3-yl) methanesulfonamide]
7.82 µM | Cc1c(F)cccc1-c1ncccc1-c1ccc2ncnc(N)c2c1 [compound 468, 6-(2-(3-Fluoro-2-methylphenyl)pyridin-3-yl)quinazolin-4-amine]
0.129 µM | Cc1cc(-c2ncc(NCc3cccnc3)cc2-c2ccc3ncsc3c2)ccc1F [compound 306, 5-(Benzo[d]thiazol-6-yl)-6-(4-fluoro-3-methylphenyl)-N-(pyridin-3-ylmethyl)pyridin-3-amine]
0.426 µM | Fc1ccc(-c2ncccc2-c2ccn3nccc3c2)cc1Cl [compound 758, 5-(2-(3-Chloro-4-fluorophenyl)pyridin-3-yl)pyrazolo[1,5-a]pyridine]
2.19 µM | Cc1cc(-c2ncccc2-c2ccc3ncc(C(=O)Nc4cccc(S(N)(=O)=O)c4)n3c2)ccc1F [compound 616, 6-(2-(4-Fluoro-3-methylphenyl)pyridin-3-yl)-N-(3-sulfamoylphenyl)imidazo[1,2-a]pyridine-3-carboxamide]
10.6 µM | CNC(=O)COCc1cnc(-c2ccc(F)c(C)c2)c(-c2ccc3nccnc3c2)c1 [compound 232, 2-((6-(4-Fluoro-3-methylphenyl)-5-(quinoxalin-6-yl)pyridin-3-yl)methoxy)-N-methylacetamide]
0.882 µM | Cc1cc(-c2ncccc2-c2ccc3ncc(C(=O)NC4CC(C)(C)N(C)C(C)(C)C4)n3c2)ccc1F [compound 702, 6-(2-(4-Fluoro-3-methylphenyl)pyridin-3-yl)-N-(1,2,2,6,6-pentamethylpiperidin-4-yl)imidazo[1,2-a]pyridine-3-carboxamide]
0.408 µM | Cc1cc(-c2ncccc2-c2ccc3ncc(C(=O)NCCCN4CCCC4=O)n3c2)ccc1F [compound 612, 6-(2-(4-Fluoro-3-methylphenyl)pyridin-3-yl)-N-(3-(2-oxopyrrolidin-1-yl)propyl)imidazo[1,2-a]pyridine-3-carboxamide]
0.0939 µM | Cc1cccc(-c2ncccc2-c2ccn3nccc3n2)c1 [compound 911, 5-(2-(m-Tolyl)pyridin-3-yl)pyrazolo[1,5-a]pyrimidine]
0.816 µM | Nc1ncnc2ccc(-c3cccnc3-c3ccc(F)c(F)c3)cc12 [compound 453, 6-(2-(3,4-Difluorophenyl)pyridin-3-yl)quinazolin-4-amine]
0.245 µM | Cc1cc(-c2ncccc2-c2ccn3ncc(C(=O)NC4CCN(C)CC4)c3c2)ccc1F [compound 655, 5-(2-(4-Fluoro-3-methylphenyl)pyridin-3-yl)-N-(1-methylpiperidin-4-yl)pyrazolo[1,5-a]pyridine-3-carboxamide]

IC50 | SMILES
23.1 µM | CCOc1cnc(-c2ccc(F)c(F)c2)c(-c2ccc3[nH]ncc3c2)c1 [Compound 7, 5-(5-Ethoxy-2-(3,4-difluorophenyl)pyridin-3-yl)-1H-indazole]
0.175 µM | Cn1cnc2ccc(-c3cccnc3-c3cccc(OC(F)F)c3)cc21 [compound 963, 6-(2-(3-(Difluoromethoxy)phenyl)pyridin-3-yl)-1-methyl-1H-benzo[d]imidazole]
1.75 µM | Cn1c(=O)cnc2ccc(-c3cccnc3-c3ccc(F)c(Cl)c3)cc21 [compound 887, 7-(2-(3-Chloro-4-fluorophenyl)pyridin-3-yl)-1-methylquinoxalin-2(1H1)-one]
0.115 µM | COc1cccc(-c2ncccc2-c2ccc3ncnc(N)c3c2)c1 [compound 451, 6-(2-(3-Methoxyphenyl)pyridin-3-yl)quinazolin-4-amine]
6.34 µM | CC(C)c1cccc(-c2ncc(N)cc2-c2ccc3[nH]ncc3c2)c1 [Compound 16, 5-(1H-Indazol-5-yl)-6-(3-isopropylphenyl)pyridin-3-amine]
0.363 µM | FC(F)(F)c1cnc2ccc(-c3cccnc3-c3cccc(C4CC4)c3)cn12 [compound 556, 6-(2-(3-Cyclopropylphenyl)pyridin-3-yl)-3-(trifluoromethyl)imidazo[1,2-a]pyridine]
0.553 µM | Cc1cc(-c2ncccc2-c2ccc3ncc(C(=O)Nc4ccncc4)n3c2)ccc1F [compound 654, 6-(2-(4-Fluoro-3-methylphenyl)pyridin-3-yl)-N-(pyridin-4-yl)imidazo[1,2-a]pyridine-3-carboxamide]
0.0972 µM | Cc1cc(-c2ncccc2-c2ccn3nccc3n2)ccc1F [compound 910, 5-(2-(4-Fluoro-3-methylphenyl)pyridin-3-yl)pyrazolo[1,5-a]pyrimidine]
10.6 µM | Cc1cc(-c2ncc(N3CCN(C)CC3)cc2-c2ccc3ncsc3c2)ccc1F [compound 319, 6-(2-(4-Fluoro-3-methylphenyl)-5-(4-methylpiperazin-1-yl)pyridin-3-yl)benzo[d]thiazole]
0.679 µM | Cc1cc(-c2ncc(NCc3ccc(Cl)nc3)cc2-c2ccc3ncsc3c2)ccc1F [compound 321, 5-(Benzo[d]thiazol-6-yl)-N-((6-chloropyridin-3-yl)methyl)-6-(4-fluoro-3-methylphenyl)pyridin-3-amine]
0.26 µM | Cc1ccc(F)c(-c2ncccc2-c2ccn3ncnc3c2)c1 [compound 737, 7-(2-(2-Fluoro-5-methylphenyl)pyridin-3-yl)-[1,2,4]triazolo[1,5-a]pyridine]
5.44 µM | N#Cc1cccc(-c2ncccc2-c2ccc3nccn3c2)c1 [Compound 51, 3-(3-(Imidazo[1,2-a]pyridin-6-yl)pyridin-2-yl)benzonitrile]
0.363 µM | Cc1cc(-c2ncccc2-c2ccc3nc[nH]c3c2)ccc1F [Compound 177, 6-(2-(4-Fluoro-3-methylphenyl)pyridin-3-yl)-1H-benzo[d]imidazole]
1.67 µM | CCCCNc1ncnc2ccc(-c3cccnc3-c3ccc(F)c(C)c3)cc12 [compound 403, N-Butyl-6-(2-(4-fluoro-3-methylphenyl)pyridin-3-yl)quinazolin-4-amine]
4.15 µM | COc1cc(NC(=O)n2ncc3cc(-c4cccnc4-c4ccc(F)c(C)c4)ccc32)cc(OC)c1OC [compound 630, 5-(2-(4-Fluoro-3-methylphenyl)pyridin-3-yl)-N-(3,4,5-trimethoxyphenyl)-1H-indazole-1-carboxamide]
1.22 µM | CC(=O)c1cnc2ccc(-c3cccnc3-c3cccc(C(F)(F)F)c3)cn12 [compound 589, 1-(6-(2-(3-(Trifluoromethyl)phenyl)pyridin-3-yl)imidazo[1,2-a]pyridin-3-yl)ethan-1-one]
1.28 µM | N#CCOc1cccc(-c2ncccc2-c2ccc3ncnc(N)c3c2)c1 [compound 481, 2-(3-(3-(4-Aminoquinazolin-6-yl)pyridin-2-yl)phenoxy)acetonitrile]
0.694 µM | Clc1cccc(-c2ncccc2-c2ccn3ncnc3c2)c1 [compound 734, 7-(2-(3-Chlorophenyl)pyridin-3-yl)-[1,2,4]triazolo[1,5-a]pyridine]
6.12 µM | Cc1cn2cc(-c3cccnc3-c3cccc(C4CC4)c3)ccc2n1 [compound 533, 6-(2-(3-Cyclopropylphenyl)pyridin-3-yl)-2-methylimidazo[1,2-a]pyridine]
